Numbers after ± are expanded uncertainties.

The conditions of the data set: Crystal; visual observation.

Consider `CCCC[P+](C)(CCCC)CCCC.COS(=O)(=O)[O-]` [tributylmethylphosphonium methyl sulfate], for which the Normal melting temperature was determined as 38.0 ± 2 °C.

Take `CCCC[N+](C)(CCCC)CCCC.COS(=O)(=O)[O-]` [N,N-dibutyl-N-methyl-1-butanaminium methyl sulfate]: the Normal melting temperature amounted to 62.0 ± 2 °C.

(Values after the NIST ThermoML archive (doi:10.1021/je3002514).)
